Experimental data reported in publication PMC3715890, “A Cyclic Peptide Inhibitor of HIF-1 Heterodimerization That Inhibits Hypoxia Signaling in Cancer Cells” (Journal of the American Chemical Society, 2013).
“Also recorded” adds a separate entry of the source. One block for each molecule: values may come before it.

How the values were obtained:
MCF-7 cells = assay: CyQUANT cell proliferation assay, MCF-7; assay type: cell-based; settings: 1 μM, positive control, 72 h
Method: Sulforhodamine B cytotoxicity assay […]
incubated in hypoxia for 24h.
O.D. value of the experimental set.
CyQUANT cell proliferation assay
The cells were incubated for 5 hours and then treated with Tamoxifen or P1. After 24, 48 or 72 hours, the media was […]
C35006) following the manufacturers instructions. Fluorescence measurements were […]
Workman, P.; Ashcroft, M. Cancer Res 2005, 65, 4918.

[1] = test system: HIF-1 (HIF-dependent luciferase reporter, MCF-7 breast cancer cells); assay: HIF-1-dependent luciferase reporter assay, MCF-7; assay type: cell-based; settings: MCF-7, 100 μM
Method: (§1) The ability of P1–P3 to disrupt HIF-1 function in cells was assessed using a HIF-1-dependent luciferase reporter assay.[15],[21] The assay uses human osteosarcoma U2OS cells, stably transfected with a HIF-dependent luciferase reporter construct (U2OS-HRE-luc), where activation of HIF results in an increase in luciferase expression.[15]
Endogenous HIF-1 luciferase reporter assays were conducted as previously reported in U2OS-HRE-luc[15] and MCF-7 cells.[46] For plasmid-expressed HIF-α luciferase reporter assays, MCF-7 and U2OS cells were transiently transfected with plasmids expressing HIF-1α, HIF-2α, or a blank control (pcDNA3.1-HIF-1α, pcDNA3.1-HIF-2α, or pcDNA3.1), a renilla-encoding control (phRL-TK), and a HIF-dependent firefly luciferase reporter construct (pGL2-TK-HRE), using Transfast (Promega) according to the manufacturer’s instructions. After 24 h, cells were recovered and plated (4000 cells/well) in 96-well plates (Perkin-Elmer) and incubated for 5 h before either hypoxic or aerobic incubation in presence or absence of cyclic peptide inhibitors. Firefly and renilla activities were determined using Dual-Glo Reagent (Promega) according to the manufacturer’s instructions. The luciferase signal was normalized using the corresponding renilla values. […]

[2] = test system: HIF-1 (HIF-dependent luciferase reporter, U2OS-HRE-luc cells); assay: HIF-1-dependent luciferase reporter assay, U2OS-HRE-luc; assay type: cell-based, human
Method: as §1
(§2) Endogenous HIF-1 luciferase reporter assays were conducted as previously reported in U2OS-HRE-luc[15] and MCF-7 cells.[46] For plasmid-expressed HIF-α luciferase reporter assays, MCF-7 and U2OS cells were transiently transfected with plasmids expressing HIF-1α, HIF-2α, or a blank control (pcDNA3.1-HIF-1α, pcDNA3.1-HIF-2α, or pcDNA3.1), a renilla-encoding control (phRL-TK), and a HIF-dependent firefly luciferase reporter construct (pGL2-TK-HRE), using Transfast (Promega) according to the manufacturer’s instructions. After 24 h, cells were recovered and plated (4000 cells/well) in 96-well plates (Perkin-Elmer) and incubated for 5 h before either hypoxic or aerobic incubation in presence or absence of cyclic peptide inhibitors. Firefly and renilla activities were determined using Dual-Glo Reagent (Promega) according to the manufacturer’s instructions. The luciferase signal was normalized using the corresponding renilla values.
Cells were treated with the stated concentrations of inhibitor (P1, P2, or P3) and incubated in normoxia for 4 h, followed by incubation in a hypoxic environment. All manipulation of cell pellets (e.g., lysis, mRNA, and protein extraction) was conducted in a hypoxic environment.

His-HIF-1α1–350 = assay: Fluorescent binding assay, HIF-1α; settings: fluorescence at 680 nm, Ni2+-coated plate, 5 µL of 100 µM solution in 95 µL buffer, 1 hour, room temperature
His-HIF-2α1–351 = assay: Fluorescent binding assay, HIF-2α; settings: fluorescence at 680 nm, Ni2+-coated plate, 5 µL of 100 µM solution in 95 µL buffer, 1 hour, room temperature
PAS-A domain of HIF-1α = assay: Fluorescent binding assay, PAS-A; settings: fluorescence at 680 nm, Ni2+-coated plate
PAS-B domain of HIF-1α = target: T1, PAS-B domain of HIF-1α (Homo sapiens, UniProt Q16665); assay: Fluorescent binding assay, PAS-B; settings: fluorescence at 680 nm, Ni2+-coated plate
T1 construct: Per-ARNT-Sim-B (PAS-B, amino acids 235–350) domains; His (N); made in house; host or cells: E. coli BL21(DE3)

bHLH domain of HIF-1α = assay: Fluorescent binding assay, bHLH; settings: fluorescence at 680 nm, Ni2+-coated plate
[3] = test system: HIF-2 (HIF-dependent luciferase reporter, MCF-7 cells); assay: HIF-2 luciferase reporter assay, MCF-7; assay type: cell-based; settings: MCF-7, transfected HIF-2α
Description: (§3) In addition, P1 had no effect on VEGF protein levels in hypoxic 786-O cells (Figure 6B). To further probe the effect of P1 on HIF-2, a luciferase reporter assay was developed and used. The assay was derived from the HIF-1 luciferase reporter assay detailed above (Figure 2C and D) and adapted for HIF-2 by replacing the plasmid encoding HIF-1α with the equivalent plasmid encoding HIF-2α. […] P2 and P3 also had no effect on HIF-2 in this assay (Figure S9).
as §2

[4] = test system: HIF-2 (HIF-dependent luciferase reporter, U2OS cells); assay: HIF-2 luciferase reporter assay, U2OS; assay type: cell-based, human; settings: transfected HIF-2α
Description: as §3, §2

[5] = test system: U2OS-luc control cell line stably expressing luciferase; assay: Control constitutive luciferase reporter, U2OS-luc; assay type: cell-based, human
Description: Figure S3: Identification of cyclic peptide HIF-1 inhibitors. (A) SICLOPPS expression is induced by arabinose, which processes to give a member of the cyclic peptide library. A dimerization inhibitor would be expected to rescue growth of the HIF-1 RTHS on selective media plates containing IPTG, kanamycin and 3-amino-triazole, and arabinose. (B) The ability of the selected cyclic peptides to […]
HIF-1 RTHS containing the corresponding SICLOPPS plasmid onto selective media. In the absence of arabinose the SICLOPPS split-intein is not produced; the HIF-1 RTHS containing plasmids encoding […]
colonies show survival on selective media plates containing IPTG and arabinose (panel 2). Expressing the 3 selected cyclic peptides from mutant SICLOPPS inteins (H24A, F26A mutations in the C- […]
cyclic form of the peptides and their activity. […]
expressing a constitutive luciferase reporter construct. […]

[6] = test system: HIF-1α/HIF-1β protein–protein interaction; assay: HIF-1 bacterial reverse two-hybrid system (RTHS), SICLOPPS-expressed cyclic peptides, drop-spotting; assay type: cell-based; settings: E. coli HIF-1 RTHS, cyclic peptide expressed from SICLOPPS plasmid, 10-fold serial dilutions, compared with the other potential inhibitors
Description: We used our genetically encoded high-throughput screening platform[23]−[25] to identify inhibitors of the HIF-1α/HIF-1β protein–protein interaction. We built and verified the function of a HIF-1 bacterial reverse two-hybrid system (RTHS, for a detailed description see the Supporting Information and Figures S1–S3). The HIF-1 RTHS was used to screen a plasmid-encoded SICLOPPS (split intein circular ligation of peptides and proteins)[26],[27] library of 3.2 million cyclic hexapeptides for HIF-1 dimerization inhibitors.
After the first round of screening, 120 surviving colonies were observed and subjected to several rounds of secondary screening to eliminate false positives and nonselective inhibitors, leaving 12 potential HIF-1 dimerization inhibitors that were ranked by drop-spotting.
The HIF-1 RTHS, associated control RTHS, and SICLOPPS library were constructed as detailed in the Supporting Information. Electrocompetent cells of the HIF-1 RTHS were prepared and transformed with the C+5 SICLOPPS plasmid library. Transformation efficiency, assessed by plating 10-fold serial dilutions of the recovery solution on LB agar supplemented with chloramphenicol (35 μg/mL), was consistently found to be ∼5 × 10^7, thus ensuring adequate coverage of the 3.2 × 10^6 member cyclic peptide library. Transformants were washed with minimal media and plated onto minimal media agar plates supplemented with ampicillin (50 μg/mL), spectinomycin (25 μg/mL), kanamycin (50 μg/mL), 3-AT (7.5 μM), IPTG (100 μM), L-arabinose (6.5 μM), and chloramphenicol (35 μg/mL). The plates were incubated for 2–3 days at 37 °C until individual colonies were visible. Colonies were picked and restreaked onto LB agar plates containing ampicillin (50 μg/mL), spectinomycin (25 μg/mL), and chloramphenicol (35 μg/mL) and incubated overnight at 37 °C.
Surviving colonies from these plates were grown overnight and assessed by drop-spotting 10-fold serial dilutions onto minimal media plates, supplemented with antibiotics, IPTG and 3-AT as above, with and without 6.5 μM L-arabinose. […]

T1 sequence (Q16665 235-350): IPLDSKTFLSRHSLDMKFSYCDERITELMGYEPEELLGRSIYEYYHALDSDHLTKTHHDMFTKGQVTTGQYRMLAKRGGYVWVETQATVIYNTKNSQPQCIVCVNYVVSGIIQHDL

Molecule: CC/C(=C(\c1ccc(O)cc1)c1ccc(OCCN(C)C)cc1)c1ccccc1 [4-hydroxytamoxifen, reference compound]
proliferation of MCF-7 cells (MCF-7 cells): inhibited proliferation; also recorded: arrests cell division

Molecule: CGRKKRRQRRRPPQ [Tat-tag, Tat-tag alone, control, reference compound]
effect on luciferase signal, Tat-tag alone [1]: did not affect the luciferase signal
effect on luciferase signal, Tat-tag alone ([2]; U2OS, 100 μM): did not affect the luciferase signal

binding to His-HIF-1α1–350 (His-HIF-1α1–350): observed binding
binding to His-HIF-2α1–351 (His-HIF-2α1–351): close to background levels
binding to PAS-A domain of HIF-1α (PAS-A domain of HIF-1α): close to background level
binding to PAS-B domain of HIF-1α (PAS-B domain of HIF-1α): binds the PAS-B domain of HIF-1α
binding to bHLH domain of HIF-1α (bHLH domain of HIF-1α): close to background level
Molecule: Megastokes dye 673-triazole-(cyclo-ALLFVY) (head to tail) [fluorescent derivative of cyclo-CLLFVY, propargylalanine derivative of cyclo-CLLFVY click-linked to azide-Megastoke dye 673]

Molecule: Tat-cyclo-CLLRMY (head to tail) [P3, cyclo-CLLRMY tagged with Tat peptide via a disulfide bond]
effect on HIF-2 luciferase reporter signal [3]: do not affect
effect on HIF-2 luciferase reporter signal [4]: do not affect
effect on constitutive luciferase signal [5]: do not affect
effect on luciferase reporter in hypoxia ([2]; U2OS-HRE-luc, hypoxia (1% O2)): did not show an effect
effect on luciferase reporter in normoxia (basal) ([2]; U2OS-HRE-luc, normoxia): did not show an effect

Molecule: cyclo-CLLFVY (head to tail)
activity ranking by drop-spotting in HIF-1 RTHS [6]: significantly more active than the others

Molecule: cyclo-CLLRMY (head to tail)
activity ranking by drop-spotting in HIF-1 RTHS [6]: significantly more active than the others

Molecule: cyclo-CRLMVL (head to tail)
activity ranking by drop-spotting in HIF-1 RTHS [6]: significantly more active than the others
